From patent US20220168391A1, “USE OF EPIDERMAL GROWTH FACTOR IN DIABETIC FOOT ULCER TREATMENT” (Centro de Ingeniería Genética y Biotecnología, priority 2019, published 2022)

What was measured:
[1] = system: DFU patients with no amputation criteria of the limb; assay: Example 4: healing of DFU after intralesional rhEGF once a week plus conventional therapy; format: in vivo, human
Protocol: The intralesional treatment with this growth factor was performed once a week, for 8 weeks, or for less time, if the lesion closed up to a dimension equal to or less than 1 cm^2. Another group of patients received conventional therapy only, with the difference that the procedure was performed three times a week, until the complete closure of the lesion was achieved.
The patients in these series had no amputation criteria of the limb affected by the DFU at the time of the initial evaluation. […] As mentioned before, conventional therapy in all patients was performed according to the standards of treatment for DFU established by the National Angiology Group of Cuba.

[2] = system: DFU; conditions: approved lyophilized medicament, intralesional; highest reduction in less complicated ulcers; cited from earlier work
[3] = system: patients with DFU; assay: Example 1: intralesional rhEGF in three treatment regimes, granulation, lesion closure and amputations in DFU patients; format: in vivo, human
Protocol: To do so, the reconstitution and dilution of the vial containing the drug was performed with 5 mL of water for injection. The administrations were made until 100% granulation of lesion, the closure of the lesion by grafting, or when a maximum of 8 weeks of treatment was attained.
Patients belonging to group 3 received the drug (75 μg/dose) three times a week, during the first week, by intralesional route. From the second week onward, the treatment continued with a dose of 225 μg, once a week. The treatment period was 8 weeks, although it was shorter if the complete closure of the lesion occurred earlier or if the ulcer reached a size smaller than 1 cm^2.
The formulated product was lyophilized in vials containing 25 μg or 75 μg of the active pharmaceutical ingredient. The composition also contained pharmaceutically acceptable excipients, such as stabilizers and pH regulators.
Patients in all three groups continued receiving conventional therapy, which was performed according to the DFU treatment standards established by the National Angiology Group of Cuba. This consists of: offloading of the lesion, metabolic control of the underlying disease with insulin (which replaces oral hypoglycemic agents), washing of the lesion with saline solution and mild soap substances, debridement, application of sterile dressings with gauze bandage, and antimicrobials, depending on the type of infectious germ present in the lesion.
The area of the DFU and the percentage of granulation were measured by a commercial system created for these purposes (Visitrak™, Smith & Nephew), which consists of grid transparent films and a device to measure the lesion by planimetry. This system has been previously validated (Sugama J, et al. J Clin Nurs 2007; 16 (7): 1265-1269). Using a permanent marker, the tracing of the contours of the lesion and the granulated regions, on the grid transparent film, was conducted.

[4] = Example 2: pharmacokinetic study, rhEGF levels in plasma of DFU patients after intralesional administration (ELISA); format: in vivo, human; conditions: for Amount of rhEGF remaining in the area of the ulcer: bioavailability analysis; for AUC / t½: intralesional, plasma, immediately after the first administration
Protocol: A pharmacokinetic study was carried out, starting from blood samples taken from 31 patients. […] The most important parameters evaluated were the ‘Area under the Curve’ (AUC) and the half-life time (t½) among others. […] The treatment was performed for 8 weeks, or less time if the ulcer area reached a measure equal or less than 1 cm^2.
For the quantitation of this growth factor, the instructions of the kit manufacturer were followed.

[5] = system: patients with DFU; assay: Example 5: case reports, injectable rhEGF once a week in DFU patients with no criteria for amputation; format: in vivo, human; conditions: 75 μg once a week for two weeks
Source text: The size of the lesion, after debridement, was 10 cm^2.
The ulcer base was covered with more than 75% of useful granulation tissue. The ulcer size was 7 cm^2.

[6] = system: patients of DFU with amputation criteria of the affected limb; assay: Example 3: healing of DFU after intralesional rhEGF at different doses, three times a week then once a week, versus three times a week control; format: in vivo, human; conditions: for Closure of the lesion (%) / Closure of the lesion, number of patients: three times a week then once a week, during follow-up; for Complete granulation response (%) / Complete granulation response, number of patients: at 8 weeks
Protocol: The route of administration was always the intralesional one. […] The doses administered per group were 2.5 μg, 25 μg, 50 μg and 75 μg. Seven patients were incorporated into the group that received 2.5 μg, 10 patients to the group that received the 25 μg dose; 13 patients to the group that received 50 μg and 18 patients in the group of 75 μg.
On the other hand, there was a group of 93 patients who were treated, during the whole period, with the dose of 75 μg three times a week. The period of treatment was 8 weeks.
Patients in all groups continued receiving the conventional therapy, which was performed according to the DFU standard treatment established by the National Angiology Group of Cuba, as summarized in Example 1.

[7] = 2.5 μg once a week plus conventional therapy, n = 10, between 8 and 12 weeks
[8] = 25 μg once a week plus conventional therapy, n = 15, between 8 and 12 weeks
[9] = 50 μg once a week plus conventional therapy, n = 15, between 8 and 12 weeks
[10] = 75 μg once a week plus conventional therapy, n = 20, between 8 and 12 weeks
[11] = Group 1: 75 μg/dose three times a week, n = 45
[12] = Group 2: 25 μg/dose three times a week intralesional, n = 45, at 3 weeks
[13] = Group 2: 25 μg/dose three times a week, n = 45
[14] = Group 2: 25 μg/dose three times a week, n = 45, end of treatment
[15] = Group 3: 75 μg three times a week first week, then 225 μg once a week, n = 25
[16] = Group 3: 75 μg three times a week first week, then 225 μg once a week, n = 25, end of treatment
[17] = Group 3: 75 μg three times a week in first week, then 225 μg once a week, n = 25, at 3 weeks
[18] = 25 μg three times a week then once a week, n = 10
[19] = 50 μg three times a week then once a week, n = 13, at 3 weeks
[20] = 75 μg three times a week then once a week, n = 18
[21] = Control Group: 75 μg three times a week for 8 weeks, n = 93, at 3 weeks
[22] = Control Group: 75 μg three times a week for 8 weeks, n = 93

recombinant human Epidermal Growth Factor [rhEGF]
Closure of the Lesion No (%) [1, 7]: (40%) | Closure of the Lesion No, number of patients [1, 7]: 4 | Closure of the Lesion Yes, number of patients ([1]; 2.5 μg once a week plus conventional therapy, n = 10, between 8 and 12 weeks after commencement): 6 | Closure of the Lesion No (%) [1, 8]: (33%) | Closure of the Lesion Yes (%) [1, 8]: (67%) | Closure of the Lesion No (%) [1, 9]: (40%) | Closure of the Lesion No, number of patients [1, 9]: 6 | Closure of the Lesion Yes, number of patients [1, 9]: 9 | Closure of the Lesion No, number of patients [1, 10]: 4 | Closure of the Lesion Yes (%) [1, 10]: (80%) | Closure of the Lesion Yes, number of patients [1, 10]: 16 | Reduction of amputation rates [2]: ≥ 70% | Granulation Objective Response CR*+PR* (%) ([3]; Group 1: 75 μg/dose three times a week intralesional, n = 45, at 3 weeks): 75% | Granulation Objective Response CR*+PR*, number of patients ([3]; Group 1: 75 μg/dose three times a week intralesional, n = 45, at 3 weeks (>50% of lesion area covered by granulation tissue)): 34 | Amputations, number of patients [3, 11]: 6 | Lesion Closure, number of patients [3, 11]: 34 | Granulation Complete Response CR (%) ([3]; Group 1: 75 μg/dose three times a week, n = 45, end of treatment): 80% | Granulation Complete Response CR, number of patients ([3]; Group 1: 75 μg/dose three times a week, n = 45, end of treatment (100% of lesion area granulated)): 36 | Granulation Objective Response CR*+PR* (%) [3, 12]: 64% | Granulation Objective Response CR*+PR*, number of patients [3, 12]: 29 | Amputations (%) [3, 13]: 22% | Lesion Closure, number of patients [3, 13]: 27 | Granulation Complete Response CR (%) [3, 14]: 69% | Granulation Complete Response CR, number of patients [3, 14]: 31 | Amputations, number of patients [3, 15]: 3 | Lesion Closure, number of patients [3, 15]: 18 | Granulation Complete Response CR (%) [3, 16]: 76% | Granulation Complete Response CR, number of patients [3, 16]: 19 | Granulation Objective Response CR*+PR* (%) [3, 17]: 68% | Granulation Objective Response CR*+PR*, number of patients [3, 17]: 17 | Amount of rhEGF remaining in the area of the ulcer ([4]; 25 μg dose): about 19 μg | AUC ([4]; 25 μg dose): 0.0851 ± 0.0502 ng·h/mL | t½ ([4]; 25 μg dose): 51 ± 46.8 min | Amount of rhEGF remaining in the area of the ulcer ([4]; 75 μg dose): ~58 µg | AUC ([4]; 75 μg dose): 0.1978 ± 0.0739 ng·h/mL | t½ ([4]; 75 μg dose): 39.6 ± 10.8 min | Amount of rhEGF remaining in the area of the ulcer ([4]; 225 μg dose): around 63 μg | AUC ([4]; 225 μg dose): 0.2886 ± 0.0894 ng·h/mL | t½ ([4]; 225 μg dose): 45 ± 12.6 min | Plasma rhEGF value after two hours of sample collection ([4]; independently of the dose received (25, 75, 225 μg)): returned to baseline levels | Lesion closure, Patient A ([5]; Patient A, 10 cm^2 superficial lesion, after said time): complete closure of the lesion was attained | Time to closure of the lesion after the first application, Patient B ([5]; Patient B, 7 cm^2 deep lesion): 9 weeks | Granulation response, Patient B ([5]; Patient B, 7 cm^2 deep lesion, after said time): complete granulation response was obtained | Closure of the lesion (%) ([6]; 2.5 μg group): 57% | Closure of the lesion, number of patients ([6]; 2.5 μg group): 4 | Objective granulation response (%) ([6]; 2.5 μg three times a week then once a week, n = 7, at 3 weeks): (57%) | Complete granulation response (%) ([6]; 2.5 μg three times a week then once a week, n = 7): (71%) | Objective granulation response, number of patients ([6]; 2.5 μg three times a week until no amputation criterion, then once a week, n = 7, ≥75% of lesion area granulated at 3 weeks): 4 | Objective granulation response, number of patients ([6]; 25 μg three times a week then once a week, n = 10, at 3 weeks): 6 | Complete granulation response (%) [6, 18]: (70%) | Complete granulation response, number of patients [6, 18]: 7 | Closure of the lesion (%) ([6]; 50 μg group): 69% | Closure of the lesion, number of patients ([6]; 50 μg group): 9 | Objective granulation response (%) [6, 19]: (61%) | Objective granulation response, number of patients [6, 19]: 8 | Complete granulation response (%) ([6]; 50 μg three times a week then once a week, n = 13): (77%) | Closure of the lesion (%) ([6]; 75 μg group): 72% | Objective granulation response (%) ([6]; 75 μg three times a week then once a week, n = 18, at 3 weeks): (72%) | Complete granulation response (%) [6, 20]: (83%) | Complete granulation response, number of patients [6, 20]: 15 | Objective granulation response (%) [6, 21]: (77%) | Objective granulation response, number of patients [6, 21]: 72 | Complete granulation response (%) [6, 22]: (85%) | Complete granulation response, number of patients [6, 22]: 79 | Closure of the lesion (% of the patients) ([6]; control group, 75 μg three administrations per week): 81% | Reduction in the risk of amputation ([6]; new treatment schedule (three times a week then once a week) along with conventional therapy): more than 80% | Amputations ([6]; the four groups that differed in the rhEGF dose and the control group): below 12%
